From PubChem BioAssay (NCI)
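Protocol summary: plate cells (96-well), add compound at 5 concentrations, incubate 48 h, interpolate endpoints linearly. GI50 marks 50% less growth. TGI: total growth inhibition.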

Legend:
Assay in all cases: DTP human tumour cell line panel, 48 h
RPMI-8226 leukemia = tested on: RPMI-8226 leukemia
HL-60(TB) leukemia = tested on: HL-60(TB) leukemia
HCT-15 colon = tested on: HCT-15 colon
NCI-H460 lung = tested on: NCI-H460 lung
COLO 205 colon = tested on: COLO 205 colon
NCI/ADR-RES ovarian = tested on: NCI/ADR-RES ovarian
MDA-MB-231 breast = tested on: MDA-MB-231 breast
TK-10 renal = tested on: TK-10 renal
CCRF-CEM leukemia = tested on: CCRF-CEM leukemia
MOLT-4 leukemia = tested on: MOLT-4 leukemia
T-47D breast = tested on: T-47D breast
IGROV1 ovarian = tested on: IGROV1 ovarian
SNB-75 CNS = tested on: SNB-75 CNS
OVCAR-5 ovarian = tested on: OVCAR-5 ovarian
HOP-62 NSCLC = tested on: HOP-62 NSCLC
HT29 colon = tested on: HT29 colon
SK-MEL-5 melanoma = tested on: SK-MEL-5 melanoma
U251 CNS = tested on: U251 CNS
SK-OV-3 ovarian = tested on: SK-OV-3 ovarian
SW-620 colon = tested on: SW-620 colon
HCT-116 colon = tested on: HCT-116 colon
HS 578T breast = tested on: HS 578T breast
KM12 colon = tested on: KM12 colon
OVCAR-3 ovarian = tested on: OVCAR-3 ovarian
LOX IMVI melanoma = tested on: LOX IMVI melanoma
EKVX NSCLC = tested on: EKVX NSCLC
NCI-H23 lung = tested on: NCI-H23 lung
786-0 renal = tested on: 786-0 renal
MCF7 breast = tested on: MCF7 breast

Work on `Clc1ccc(-c2ccc(CNCC3CCNCC3)o2)c(-c2ccccc2)c1` yielded a TGI (RPMI-8226 leukemia) of 3.19 µM, a GI50 (HL-60(TB) leukemia) of 1.8 µM and a TGI (HL-60(TB) leukemia) of 3.69 µM. It also gave a GI50 (HCT-15 colon) of 1.19 µM, a TGI (HCT-15 colon) of 2.6 µM and a GI50 (NCI-H460 lung) of 1.71 µM. It also gave a TGI (NCI-H460 lung) of 3.33 µM, a GI50 (COLO 205 colon) of 1.64 µM and a TGI (COLO 205 colon) of 3.36 µM. For the same compound, the GI50 (NCI/ADR-RES ovarian) was 1.71 µM, the TGI (NCI/ADR-RES ovarian) was 3.3 µM and the GI50 (MDA-MB-231 breast) was 1.36 µM. The TGI (MDA-MB-231 breast) was 2.85 µM, the GI50 (TK-10 renal) was 1.62 µM and the TGI (TK-10 renal) was 3.13 µM. For the same compound, the GI50 (CCRF-CEM leukemia) was 0.557 µM, the TGI (CCRF-CEM leukemia) was 2.31 µM and the GI50 (MOLT-4 leukemia) was 1.54 µM. It also gave a TGI (MOLT-4 leukemia) of 3.42 µM, a GI50 (T-47D breast) of 1.74 µM and a TGI (T-47D breast) of 3.82 µM. For the same compound, the GI50 (IGROV1 ovarian) was 1.39 µM, the TGI (IGROV1 ovarian) was 2.93 µM and the GI50 (SNB-75 CNS) was 1.39 µM. For the same compound, the TGI (SNB-75 CNS) was 2.81 µM, the GI50 (OVCAR-5 ovarian) was 1.61 µM and the TGI (OVCAR-5 ovarian) was 3.04 µM. For the same compound, the GI50 (HOP-62 NSCLC) was 1.65 µM, the TGI (HOP-62 NSCLC) was 3.27 µM and the GI50 (HT29 colon) was 1.44 µM. For the same compound, the TGI (HT29 colon) was 2.89 µM, the GI50 (SK-MEL-5 melanoma) was 1.66 µM and the TGI (SK-MEL-5 melanoma) was 3.05 µM. It also gave a GI50 (U251 CNS) of 1.56 µM, a TGI (U251 CNS) of 3.01 µM and a GI50 (SK-OV-3 ovarian) of 1.87 µM. It also gave a TGI (SK-OV-3 ovarian) of 3.33 µM, a GI50 (SW-620 colon) of 1.38 µM and a TGI (SW-620 colon) of 2.96 µM. For the same compound, the GI50 (HCT-116 colon) was 1.24 µM, the TGI (HCT-116 colon) was 2.54 µM and the GI50 (HS 578T breast) was 1.63 µM. It also gave a TGI (HS 578T breast) of 3.42 µM, a GI50 (KM12 colon) of 1.79 µM and a TGI (KM12 colon) of 3.62 µM. The GI50 (OVCAR-3 ovarian) was 1.74 µM, the TGI (OVCAR-3 ovarian) was 3.46 µM and the GI50 (LOX IMVI melanoma) was 1.54 µM. It also gave a TGI (LOX IMVI melanoma) of 3.03 µM, a GI50 (EKVX NSCLC) of 1.59 µM and a TGI (EKVX NSCLC) of 2.95 µM. The GI50 (NCI-H23 lung) was 1.71 µM, the TGI (NCI-H23 lung) was 3.32 µM and the GI50 (786-0 renal) was 1.58 µM. The TGI (786-0 renal) was 3.01 µM, the GI50 (MCF7 breast) was 1.56 µM and the TGI (MCF7 breast) was 3.3 µM.
